In patent publication US20070207503A1, “DETECTION OF ALCOHOL-ESTERIFIED FATTY ACIDS” (priority 2006, published 2007):

Assays:
[1] = tested on: antibodies against 14,15-DHET; experiment: 14,15-DHET solid phase competitive ELISA, specificity; format: binding, goat; conditions: 14,15-DHET ELISA, panel of eicosanoids
Protocol: (§1) High-binding microplates were coated with protein G-purified IgG suspended in 1 M carbonate, pH 9.01 (10 μg/well; 200 μL/well final volume) and then covered with parafilm. After overnight incubation at room temperature, the welts were gently washed five times with tris buffered saline (TBS), pH 7.5, containing 0.1% tween. Non-specific sites were blocked by the addition of 0.2 mL of 5% (w/v) nonfat dry milk in TBS. After 2 hours of incubation at room temperature, they were washed three times with TBS-tween.
(§2) Standards were serially diluted with TBS (100 μL). The diluted samples (100 μL) were added to the IgG-coated plate. Approximately 50 ng of the DHET HRP conjugates were diluted with HRP-dilution buffer (100 μL) and added to the well. Following incubation for 2 hours to permit competitive binding of the molecules to the antibody, unbound material was removed by thorough washing of the wells with TBS-tween, and 150 μL of a calorimetric substrate for HRP [3,3′,5,5′ tetramethylbenzidine (TMB) and hydrogen peroxide] (Sigma Co.) was added. The plate is then incubated for 30 min, the reaction stopped by addition of 75 μL of 1 N H2SO4, and the absorbance at 450 nm was measured using a microtiter plate reader. Under these assay conditions, the amount of color in a well is inversely proportional to the initial concentration of the sample or the standard ligand.
(§3) The specificity of the 14,15-DHET ELISA was investigated using authentic DHET and a panel of eicosanoids which, based on their structure, might be anticipated to compete with 14,15-DHET for binding to antibodies against 14,15-DHET.
(§4) In a typical standard graph for 14,15-DHET, the r2 value for the fit of the data to an equation describing an inverse logarithmic relationship of free 14,15-DHET to B/Bo was usually higher than 0.96. The detection limits for 14,15- and 11,12-DHET with ELISAwere ˜1 pg.

[2] = tested on: ethanol-esterified 13-HODE IgG; experiment: Competitive ELISA with HRP conjugated with ethanol-esterified 13-HODE; format: binding, goat; conditions: plate coated with the IgG, various concentrations
Protocol: FIG. 6 is a graph showing a competitive ELISA carried out with various concentrations of BSA and 13-HODE ethyl ester conjugated BSA to show cross-reactivity of the antibody to the 13-HODE ethyl ester.
A competitive ELISA using a plate coated with the IgG was carried out with various concentrations of BSA conjugated with ethanol-esterified 13-HODE and HRP conjugated with ethanol-esterilied 13-HODE. A negative control for this ELISA was BSA.
ELISA was carried out with serially diluted BSA or ethyl ester of 13-HODE-conjugated BSA and ˜50 ng/100 μl of the ethyl ester of 13-HODE HRP conjugates as described in Example 1.

[3] = Form-specific antibody production / specificity of anti-14,15-, 11,12-, 8,9- and 5,6-DHETs; format: binding; conditions: DHET coupled to KLH, goat immunized
Protocol: Synthetic 14,15-, 11,12- or 8,9-DHETs were coupled to KLH using dicyclohexylcarbodiimide (DCC) as previously described (10). The 5,6-DHET with COOH at C1 blocked by NH3 to prevent lactone formation were coupled to KLH using 1-ethyl-3-(3-dimethylaminopropyl)carbodiimide hydrochloride (EDC) according to the manufacturer's instruction (Pierce Biotechnology, Rockford, Ill).
The conjugate was used to immunize a goat and antibody titers were determined by ELISA using the DHET-conjugated bovine serum albumin (BSA).
as §3
(§5) The specificity of the antibody developed against 14,15-DHET was further investigated utilizing slot blot analysis. The 14,15-DHET conjugated BSA, BSA alone and 8,9-DHET conjugated to BSA were blotted onto cellulose membrane. Slot blot analysis was carried out with anti-14,15-DHET. […] Anti-8,9-DHET cross-reacted with both 8,9- and 14,15-DHETs.

11,12-DHET IgG = experiment: 11,12-DHET solid phase competitive ELISA, specificity; format: binding, goat; conditions: 11,12-DHET ELISA, authentic DHETs
Protocol: as §1, §2, §3, §4

Anti-8,9-DHET = experiment: Cross-reaction of anti-8,9-DHET; format: binding, goat
Protocol: as §5

| Structure (SMILES) | cross-reaction with anti-14,15-DHET [1] | other results |
| --- | --- | --- |
| CCCCC[C@H](O)/C=C/[C@H]1OC(O)C[C@H](O)[C@@H]1C/C=C\CCCC(=O)O (stereo partly shown) [Thromboxane B2] | did not cross-react |  |
| CCO [ethanol] |  | competition with ethanol-esterified 13-HODE-HRP conjugate for binding to the IgG [2]: competed with the HRP conjugated with ethanol-esterified 13-HODE in a dose-dependent manner |
| CCCCC/C=C\C/C=C\C/C=C\C/C=C\CCCC(=O)O [arachidonic acid] | did not cross-react |  |
| CCCCC[C@H](O)/C=C/C=C\C/C=C\C=C\[C@@H](O)CCCC(=O)O [5(s)15(S)DiHETE] | did not cross-react |  |
| CCCCC/C=C\C/C=C\C/C=C\CC1OC1CCCC(=O)O (stereo not shown) [5,6-EET] | did not cross-react |  |
| CCCCC/C=C\CC(O)C(O)C/C=C\C/C=C\CCCC(=O)O (stereo not shown) [11,12-DHET] | minimal cross-reaction | form-specific antibody production [3]: successful |
| CCCCC/C=C\C/C=C\CC1OC1C/C=C\CCCC(=O)O (stereo not shown) [8,9-EET] | did not cross-react |  |
| CCCCC[C@H](O)/C=C/[C@H]1[C@H](O)CC(=O)[C@@H]1C/C=C\CCCC(=O)O [PGE2] | did not cross-react |  |
| CCCCC[C@H](O)/C=C/[C@@H]1[C@@H](CC(=O)CCCCC(=O)O)[C@@H](O)C[C@H]1O [6-keto-PGF1a] | did not cross-react |  |
| CCCCC[C@H](O)/C=C/[C@@H]1[C@@H](C/C=C\CCCC(=O)O)[C@@H](O)C[C@H]1O [PGF2a] | did not cross-react |  |
| CCCCC/C=C\C/C=C\C/C=C\CC(O)C(O)CCCC(=O)O (stereo not shown) [5,6-DHET] | did not cross-react | cross-reaction with 11,12-DHET IgG (11,12-DHET IgG): didn't cross-react; form-specific antibody production [3]: failed |
| CCCCC/C=C\C[C@H]1O[C@H]1C/C=C\C/C=C\CCCC(=O)O [11,12-EET] | did not cross-react |  |
| CCCCCC1OC1C/C=C\C/C=C\C/C=C\CCCC(=O)O (stereo not shown) [14,15-EET] | did not cross-react |  |
| CCCCC/C=C\C/C=C\CC(O)C(O)C/C=C\CCCC(=O)O (stereo not shown) [8,9-DHET] | minimal cross-reaction | cross-reaction with anti-8,9-DHET (Anti-8,9-DHET): cross-reacted; cross-reaction with 11,12-DHET IgG (11,12-DHET IgG): minimal cross-reaction; form-specific antibody production [3]: failed |
| CCCCCC(O)C(O)C/C=C\C/C=C\C/C=C\CCCC(=O)O (stereo not shown) [14,15-DHET] |  | cross-reaction with anti-8,9-DHET (Anti-8,9-DHET): cross-reacted; cross-reaction with 11,12-DHET IgG (11,12-DHET IgG): minimal cross-reaction; form-specific antibody production [3]: successful |
| CCCCC[C@H](O)/C=C/C=C\C/C=C\C/C=C\CCCC(=O)O [15(S)HETE] | did not cross-react |  |
| CCCCC/C=C\C/C=C\CCCCCCCC(=O)OCC [Ethanol-esterified linoleic acid, linoleic acid ethyl ester] |  | competition with ethanol-esterified 13-HODE-HRP conjugate for binding to the IgG [2]: competed with the HRP conjugated with ethanol-esterified 13-HODE in a dose-dependent manner |
